Patent publication US20080267996A1 (priority 2005, published 2008)

How the values were obtained:
HBsAg = HBsAg / Anti-HBs serotyping (VITROS ECi); type: in vivo, hepatitis B virus; settings: Week 14/18; Part 2 Group C (n 11)
Experimental: Serotyping was performed using a VITROS ECi Immunodiagnostic System.

[1] = tested on: HBs peptide pools (PreS2 + S ayw) and HbsAg protein; test: Ex vivo IFN-gamma ELISPOT of patient PBMC; type: in vivo, human; settings: Part 2 Groups A, B, C
Experimental: ELISPOT Assays were carried out by Cellular Technology Limited (CTL Laboratory LLC. 10515 Carnegie Ave., Suite 503 Cleveland Ohio 44106, USA) using the following assay conditions:
The following peptides were pooled and used as antigens:
The HBs series of peptides are arranged into 4 distinct pools of peptides, each containing up to 12 total peptides:
The entire HbsAg protein was also used as an antigen.
An ELISPOT response to a peptide pool (or HbsAg protein) was considered to have occurred when the mean +/− standard deviation for the peptide pool, or HbsAg protein, was greater than the mean +3 standard deviations of that patient's negative control.

**Q.** With `Nc1ccn([C@@H]2CS[C@H](CO)O2)c(=O)n1` [lamivudine, Lamivudine] as the compound, how does the “HBsAg−, percent of patients” value (HBsAg) read?
**A.** The value was 9%.

**Q.** And the “baseline immunological responses (detected prior to treatment, unchanged or reduced)” value [1]?
**A.** Its value is 3.

**Q.** And the “boosted immunological responses (of baseline responses)” value [1]?
**A.** Its value is 5/8.

**Q.** What about the “de novo immunological responses (of baseline non-responders)” value [1] of the same compound?
**A.** The value was 0/3.
